Results as given in article PMC12120661, “Synthesis and Biological Evaluation of 4‑(4-Nitrophenyl)‑1H‑1,2,3-triazole Derivatives as Antitrypanosomal Agents” (ACS Omega, 2025).
pIC50: −log10 of the molar value. Read-outs that look alike come from different tables or passages of the source.

What was measured:
Format in all cases: cell-based
[1] = tested on: T. cruzi Tulahuen CL2 β-galactosidase strain; test: Antitrypanosomal screening, anti-T. cruzi (trypomastigote) activity, CPRG photometric method; settings: Trypanosoma cruzi; Tulahuen CL2 β-galactosidase strain on MRC-5SV2; values in parentheses mean ± SEM of two experiments
Experimental: A preliminary assay was conducted to evaluate the analogs’ in vitro cytotoxicity and antitrypanosomatid activity against T. cruzi Tulahuen strain (Table ). […] However, the promising results of analog 16 encouraged us to conduct more in-depth studies on this compound.
Anti-parasitic assays were conducted following established protocols outlined in earlier literature. In brief, for assessing anti-T. cruzi activity, the Tulahuen CL2 β-galactosidase strain (nifurtimox-sensitive) was employed and maintained on MRC-5SV2 (human lung fibroblast). A total of 4 × 10^3 cells were infected with 4 × 10^4 parasites per well. The synthesized analogs were tested at concentrations ranging from 1.56 to 50.00 μM. Parasite burdens were evaluated after the addition of the substrate CPRG (chlorophenol red ß-D-galactopyranoside). The change in color was measured spectrophotometrically at 540 nm after 4 h of incubation at 37°C. In all assays, parasite growth was compared to untreated-infected controls (100% growth) and noninfected controls (0% growth). Results were expressed as the percentage of parasite reduction at different drug concentrations and used to calculate IC50 values from the dose–response curves.

[2] = Preliminary cytotoxicity assay, resazurin; settings: human MRC-5 cell line, 3 days incubation
Experimental: MRC-5SV2 cell cytotoxicity was assessed following the methodology outlined in earlier literature. Briefly, cells at a concentration of 1.5 × 10^5 cells/mL were cultured with compound dilutions at 37 °C and 5% CO2. Cell growth was compared to untreated-control wells (100% cell growth) and medium-control wells (0% cell growth). After 3 days of incubation, cell viability was fluorometrically assessed following the addition of 50-μL resazurin per well. Fluorescence was measured after 4 h at 37 °C (λex 550 nm, λem 590 nm). The results were expressed as the percentage reduction in cell growth/viability compared to control wells, and an IC50 value was determined.

[3] = Cytotoxicity against primary mouse macrophages
From the text: 1 In Vitro Anti- T. cruzi (Trypomastigote) Activity and Cytotoxicity Assessment of Hit 1 Analogs ^a | column: PMM CC50 (μM)

[4] = mouse, primary mouse macrophages (PMM)

SMILES	pIC50 [1]	CC50 at 3 days ([2]; MRC-5SV2 lung fibroblast cells)	CC50 [3, 4]	CC50 at 3 days [2]	CC50 ([3]; primary mouse macrophages, read-out: PMM CC50)
COc1cc(OC)cc(-c2cn(Cc3ccc([N+](=O)[O-])cc3)nn2)c1 [Compound 28, 4-(3,5-Dimethoxyphenyl)-1-(4-nitrobenzyl)-1H-1,2,3-triazole]	< 4.30	> 50 µM	> 50 µM		
COc1cccc(-c2cn(Cc3ccc([N+](=O)[O-])cc3)nn2)c1 [Compound 26, 4-(3-Methoxyphenyl)-1-(4-nitrobenzyl)-1H-1,2,3-triazole]	< 4.30	> 50 µM	> 50 µM		
O=[N+]([O-])c1ccc(Cn2cc(-c3ccc([N+](=O)[O-])cc3)nn2)cc1 [Compound 24, 1-(4-Nitrobenzyl)-4-(4-nitrophenyl)-1H-1,2,3-triazole]	< 4.30			> 50 µM	> 50 µM
Cn1cncc1-c1cn(Cc2ccc([N+](=O)[O-])cc2)nn1 [Compound 25, 4-(1-Methyl-1H-imidazol-5-yl)-1-(4-nitrobenzyl)-1H-1,2,3-triazole]	< 4.30	> 50 µM	> 50 µM		
O=[N+]([O-])c1ccc(Cn2cc(-c3cccnc3)nn2)cc1 [Compound 22, 3-(1-(4-Nitrobenzyl)-1H-1,2,3-triazol-4-yl)pyridine]	5.38	5.06 µM	> 50 µM		
Nc1ccc(-c2cn(Cc3ccc([N+](=O)[O-])cc3)nn2)cc1 [Compound 23, 4-(1-(4-Nitrobenzyl)-1H-1,2,3-triazol-4-yl)aniline]	< 4.30	> 50 µM	> 50 µM		
O=C(Cn1cc(-c2ccc([N+](=O)[O-])cc2)nn1)NCc1ccc(O)cc1 [Compound 12, N-(4-Hydroxybenzyl)-2-(4-(4-nitrophenyl)-1H-1,2,3-triazol-1-yl)acetamide]	4.51	> 50 µM	> 50 µM		
O=C(O)Cn1cc(-c2ccc([N+](=O)[O-])cc2)nn1 [Compound 17, 2-(4-(4-Nitrophenyl)-1H-1,2,3-triazol-1-yl)acetic Acid]	< 4.30	> 50 µM	> 50 µM		
O=C(Cn1cc(-c2ccc([N+](=O)[O-])cc2)nn1)NCc1ccccn1 [Compound 10, 2-(4-(4-Nitrophenyl)-1H-1,2,3-triazol-1-yl)-N-(yridine-2-ylmethyl)acetamide]	< 4.30	> 50 µM	> 50 µM		
O=[N+]([O-])c1ccc(Cn2cc(-c3ccc(CO)cc3)nn2)cc1 [Compound 21, (4-(1-(4-Nitrobenzyl)-1H-1,2,3-triazol-4-yl)phenyl)methanol]	< 4.30	> 50 µM	> 50 µM		
O=C(Cn1cc(-c2ccc([N+](=O)[O-])cc2)nn1)NCc1cccnc1 [Compound 11, 2-(4-(4-Nitrophenyl)-1H-1,2,3-triazol-1-yl)-N-((pyridin-3-yl)methyl)acetamide]	< 4.30	> 50 µM	> 50 µM		
O=[N+]([O-])c1ccc(Cn2cc(-c3ccccc3CO)nn2)cc1 [Compound 27, (2-(1-(4-Nitrobenzyl)-1H-1,2,3-triazol-4-yl)phenyl)methanol]	< 4.30	> 50 µM	> 50 µM		
N#Cc1ccc(CNC(=O)Cn2cc(-c3ccc([N+](=O)[O-])cc3)nn2)cc1 [Compound 13, N-(4-Cyanobenzyl)-2-(4-(4-nitrophenyl)-1H-1,2,3-triazol-1-yl)acetamide]	< 4.30	> 50 µM	35.4 µM		
O=C(O)c1ccc(Cn2cc(-c3ccc([N+](=O)[O-])cc3)nn2)cc1 [Compound 18, 4-((4-(4-Nitrophenyl)-1H-1,2,3-triazol-1-yl)methyl)benzoic Acid]	< 4.30	> 50 µM	> 50 µM		
N#Cc1ccc(Cn2cc(-c3ccc([N+](=O)[O-])cc3)nn2)cc1 [Compound 15, 4-((4-(4-Nitrophenyl)-1H-1,2,3-triazol-1-yl)methyl)benzonitrile]	< 4.30	> 50 µM	> 50 µM		
